{
  "source": "patent US12433871B2",
  "about": "“Effects of age-dependent changes in cell size on endothelial cell growth” (The Medical College of Wisconsin, Inc., priority 2019, dated 2025)",
  "key": {"[1]": {"tested_on": "aged human adipose ECs", "assay": "Mouse subcutaneous fibrin gel implantation (blood vessel formation and dextran leakage)", "format": "in vivo, NSG mouse", "procedure": "(§1) In an in vitro cell culture study human adipose endothelial cells were treated with ML141 (500 nM with DMSO). In an in vivo mouse study hydrogel mixed with young or aged human endothelial cells or in combination with ML141 (500 nM with DMSO) was implanted on the back of the immunocompromised mouse. One week later, the gel was removed and analyzed blood vessel formation using immunohistochemical analysis.\nMouse subcutaneous fibrin gel implantation—The in vivo animal study was carried out in strict accordance with the recommendations in the Guide for the Care and Use of Laboratory Animals of the National Institutes of Health. The protocol was reviewed and approved by the Animal Care and Use Committee of Medical College of Wisconsin. NOD scid gamma (NSG) mice (8 week old; Jackson Laboratory) and C57BL6 mice (Jackson Laboratory and NIA/NIH rodent colonies) were used for the study. Fibrin gel was fabricated as described. […] Vascular network formation of GFP-labeled human adipose ECs was evaluated by measuring the area and length of GFP-labeled blood vessels from five different areas of the gel. The vascular permeability was measured using low MW fluorescently labeled dextran (MW 4000, Sigma) leakage. […]"}, "[2]": {"tested_on": "ECs isolated from >50 y.o. human adipose tissues", "assay": "EC senescence (p16INK4A staining) in aged ECs cultured on FN-coated microcontact-printed islands", "format": "cell-based", "settings": "aged ECs on the large island (2500 μm2), ML141 500 nM, compared to those without ML141 treatment", "procedure": "as §1\nEC proliferation was analyzed by a BrdU incorporation assay or a Click-iT® Plus EdU Proliferation Assay. Mouse lung and human adipose ECs were plated in EBM2 with 2% serum, pulsed with 5 μM BrdU for 16 h, immunostained and imaged using a confocal Leica SP5 microscope. Cellular senescence was characterized using a SA-β galactosidase assay kit (cell signaling) or anti-P16^INK4A staining. The specificity of P16^INK4A staining was confirmed by 2nd Ab alone staining (Supplementary FIG. 1D). The microscopic images were analyzed on at least five images using imageJ software (NIH) and the same contrast and brightness were used to compare the images.\n(§2) Microcontact printing system—Stamps were created using soft lithography as described previously. Polydimethylsiloxane (PDMS) stamps were made by casting the polymer against master molds made by standard photolithography using the negative photoresist SU-8 (MicroChem). […]"}, "[3]": {"tested_on": "YAP1", "assay": "YAP1 nuclear localization in aged ECs cultured on FN-coated microcontact-printed islands", "format": "cell-based, human", "settings": "aged ECs on the large island (2500 μm2), ML141 500 nM, compared to those without ML141 treatment", "procedure": "To directly analyze whether EC size controls YAP1 activity, we prepared microcontact-printed substrates consisting of square FN-coated islands (600-2500 μm2) surrounded by non-adhesive regions, in which we directly stamped FN (50 μg/ml) onto activated polydimethylsiloxane-coated cover slips and blocked unstamped areas with Pluronic F-127 [49, 50]. […] In contrast, when we cultured 24M old mouse lung ECs on the large islands, YAP1 was excluded from the nucleus, while YAP1 was in the nucleus on the medium size islands (FIGS. 6D and 6E).\nas §1\nas §2, with “(MicroChem). Substrates for stamping were fabricated by spin-coating a thin layer of PDMS (Sylgard-184, Dow Corning) onto glass coverslips.” for “(MicroChem).”"}, "[4]": {"tested_on": "YAP1", "assay": "Immunoblot of YAP1S127 phosphorylation in aged human adipose ECs treated with ML141", "format": "cell-based", "settings": "ML141 500 nM, compared to those without ML141 treatment", "excerpt": "(§3) FIGS. 3A-3F show CDC42-YAP1 mediates cell size-dependent changes in EC senescence in aged ECs. (FIG. 3A) Representative immunoblots showing YAP1, YAP1S127 phosphorylation, and β-actin protein levels in ECs isolated from >50 y.o. human adipose tissues treated with retrovirus overexpressing full-length YAP1 or YAP1S127A (left). Graph showing the quantification of immunoblots (right, n=3, *, p<0.05). (FIG. 3B) IF micrographs showing P16^INK4A expression and DAPI in ECs isolated from >50 y.o. human adipose tissues treated with retrovirus overexpressing full-length YAP1 or YAP1S127A, cultured on FN-coated island of different sizes. Scale bar, 10 (FIG. 3C) Graph showing quantification of P16^INK4A integrated density (n=7, mean±s.e.m., *, p<0.05). […] Graph showing quantification of GTP-CDC42 integrated density (n=7, mean±s.e.m., *, p<0.05). […] Graph showing the quantification of immunoblots (bottom, n=3, *, p<0.05). […] Scale bar, Graphs showing quantification of P16^INK4A integrated density (bottom left) and nuclear YAP1 (bottom right) (n=7, mean±s.e.m., *, p<0.05).\n(§4) In an in vitro cell culture study human adipose endothelial cells were treated with ML141 (500 nM with DMSO). […] One week later, the gel was removed and analyzed blood vessel formation using immunohistochemical analysis."}, "[5]": {"molecular_target": "T1, CDC42 (Homo sapiens, UniProt P60953)", "T1 construct": "endogenous in cells; host or cells: primary endothelial cells isolated from >50 y.o. human adipose tissue", "T1 sequence (P60953 whole entry)": "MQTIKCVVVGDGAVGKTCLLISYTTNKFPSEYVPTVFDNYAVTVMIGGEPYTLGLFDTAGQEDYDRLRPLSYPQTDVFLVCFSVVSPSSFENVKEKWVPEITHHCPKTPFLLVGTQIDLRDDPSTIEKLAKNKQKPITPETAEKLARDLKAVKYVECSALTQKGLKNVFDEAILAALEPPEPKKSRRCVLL", "assay": "GTP-CDC42 levels by immunofluorescence in aged human adipose ECs treated with ML141", "format": "cell-based", "settings": "ECs from >50 y.o. human adipose tissues, ML141 500 nM", "excerpt": "as §3, §4"}},
  "data": [
    {"compound": "COc1ccc(C2CC(c3ccccc3)=NN2c2ccc(S(N)(=O)=O)cc2)cc1", "note": "(stereo not drawn) [ML141]", "values": [
      {"measurement": "aged EC-derived blood vessel length, times longer", "setting": "[1]; fibrin gel with aged human adipose ECs, ML141 500 nM in gel, subcutaneous in NSG mouse, 7 days", "value": 2.5, "unit": "times"},
      {"measurement": "leakage of fluorescently labeled dextran in the gel", "setting": "[1]; gel with aged ECs, ML141 500 nM, dextran by systemic injection", "value": "attenuated the leakage of dextran"},
      {"measurement": "intensity of senescence marker p16INK4A, lower", "setting": "[2]", "value": 45, "unit": "%"},
      {"measurement": "levels of nuclear YAP1, times higher", "setting": "[3]", "value": 1.2, "unit": "times"},
      {"measurement": "decrease in YAP1S127 phosphorylation", "setting": "[4]", "value": 72, "unit": "%"},
      {"measurement": "CDC42 activity (GTP-CDC42 integrated density)", "setting": "[5]", "value": "Inhibition of CDC42 activity"}
    ]}
  ]
}
